Experiments:
[1] = target: T1, 5-hydroxytryptamine receptor 1A (Rattus norvegicus, UniProt P19327); assay: Binding affinity to 5-hydroxytryptamine 1A receptor (5-HT 1A receptor, serotonin receptor) from rat cortex using [3H]8-OH-DPAT as radioligand
T1 sequence (P19327 whole entry): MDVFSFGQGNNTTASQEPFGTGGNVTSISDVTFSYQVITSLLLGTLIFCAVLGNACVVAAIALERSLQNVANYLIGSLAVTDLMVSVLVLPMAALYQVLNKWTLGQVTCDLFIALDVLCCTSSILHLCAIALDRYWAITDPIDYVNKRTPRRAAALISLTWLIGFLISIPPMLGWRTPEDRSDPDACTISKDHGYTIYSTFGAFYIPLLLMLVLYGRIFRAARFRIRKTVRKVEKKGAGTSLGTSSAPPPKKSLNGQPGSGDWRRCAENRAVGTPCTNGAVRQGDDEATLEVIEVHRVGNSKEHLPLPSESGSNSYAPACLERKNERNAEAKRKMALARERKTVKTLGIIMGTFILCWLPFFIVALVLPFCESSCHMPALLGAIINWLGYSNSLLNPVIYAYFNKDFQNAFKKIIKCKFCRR

[2] = target: Sodium-dependent serotonin transporter (Rattus norvegicus, UniProt P31652); assay: Binding affinity towards Serotonin transporter from rat cortex measured using [3H]paroxetine; settings: read-out: Ki
Sodium-dependent serotonin transporter, sequence (P31652 whole entry): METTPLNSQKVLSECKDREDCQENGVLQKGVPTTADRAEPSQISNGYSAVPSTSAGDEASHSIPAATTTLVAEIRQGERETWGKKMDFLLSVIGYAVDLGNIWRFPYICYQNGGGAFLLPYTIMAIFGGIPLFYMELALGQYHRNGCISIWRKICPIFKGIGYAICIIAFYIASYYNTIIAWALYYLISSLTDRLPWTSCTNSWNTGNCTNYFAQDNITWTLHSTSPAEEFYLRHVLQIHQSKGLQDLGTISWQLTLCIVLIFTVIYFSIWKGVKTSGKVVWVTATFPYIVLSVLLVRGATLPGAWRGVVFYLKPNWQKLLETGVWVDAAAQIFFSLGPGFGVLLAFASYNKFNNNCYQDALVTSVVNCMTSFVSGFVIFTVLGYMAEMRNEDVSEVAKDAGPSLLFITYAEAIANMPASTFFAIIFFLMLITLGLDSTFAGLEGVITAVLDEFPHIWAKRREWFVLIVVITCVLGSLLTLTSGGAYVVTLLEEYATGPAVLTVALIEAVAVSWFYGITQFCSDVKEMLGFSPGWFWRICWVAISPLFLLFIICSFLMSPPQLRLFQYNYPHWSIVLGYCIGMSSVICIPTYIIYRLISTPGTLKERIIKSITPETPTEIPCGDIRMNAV

Row | Ki ([1]; read-out: Ki) [nM] | Ki [2] [nM] | Ki [1] [nM] | Compound
1 | > 5000 | 2500 |  | O=[N+]([O-])c1ccc(N2CCN(CCC(Oc3ccc(C(F)(F)F)cc3)c3ccccc3)CC2)cc1 (centres undefined)
2 | 5000 | > 5000 |  | COc1ccc(N2CCN(CCC(=O)c3ccccc3)CC2)cc1
3 | 500 | 275 |  | COc1cc(Cl)ccc1N1CCN(CCC(=O)c2csc3ccccc23)CC1
4 |  | 800 | 35 | O=C(CCN1CCN(c2cccc3ccccc23)CC1)c1ccsc1
5 |  | 4700 | 145 | OC(CCN1CCN(c2ccc(F)cc2)CC1)c1ccccc1 (centres undefined)
6 | 800 | > 5000 |  | O=C(CCN1CCN(c2ccc(F)cc2)CC1)c1ccccc1
7 |  | > 5000 | 155 | OC(CCN1CCN(c2ccccn2)CC1)c1ccccc1 (centres undefined)
8 | 1000 | 650 |  | COc1ccc(C(CCN2CCN(c3ccccc3OC)CC2)Oc2ccc(C(F)(F)F)cc2)cc1 (centres undefined)
9 | > 5000 | 350 |  | FC(F)(F)c1ccc(OC(CCN2CCN(c3ccc(Cl)cc3)CC2)c2ccccc2)cc1 (centres undefined)
10 |  | 650 | 450 | COc1ccccc1N1CCN(CCC(Oc2ccc(C(F)(F)F)cc2)c2ccccc2)CC1 (centres undefined)
11 |  | > 5000 | 340 | COc1ccccc1N1CCN(CCC(=O)c2ccc([N+](=O)[O-])s2)CC1
12 |  | 175 | 850 | COc1ccccc1N1CCN(CCC(O)c2ccc(-c3ccccc3)cc2)CC1 (centres undefined)
13 |  | > 5000 | 120 | O=C(CCN1CCN(c2ncccn2)CC1)c1ccccc1
14 | 1450 | 500 |  | COc1ccc(OC(CCN2CCN(c3ccc(Cl)cc3)CC2)c2ccccc2)cc1 (centres undefined)
15 | 17.5 | > 5000 |  | COc1ccccc1N1CCN(CCC(=O)c2ccc(C)s2)CC1
16 | 5000 | 50 |  | OC(CCN1CCN(c2ccc(Cl)cc2)CC1)c1csc2ccccc12 (centres undefined)
17 |  | 380 | 420 | COc1ccccc1N1CCN(CCC(O)c2ccc3ccccc3c2)CC1 (centres undefined)
18 |  | > 5000 | 47.5 | COc1ccccc1N1CCN(CCC(O)c2ccccc2)CC1 (centres undefined)
19 | 100 | 500 |  | O=C(CCN1CCN(c2cccc3ccccc23)CC1)c1csc2ccccc12
20 | 85 | 5000 |  | COc1ccccc1N1CCN(CC/C(=N\O)c2cc(C)sc2C)CC1
21 |  | 375 | 550 | Clc1ccc(N2CCN(CCC(Oc3ccc4c(c3)OCO4)c3ccccc3)CC2)cc1 (centres undefined)
22 |  | > 5000 |  | COc1ccc(C(=O)CCN2CCN(c3ccccc3OC)CC2)cc1
23 | > 5000 | 1150 |  | O=[N+]([O-])c1ccc(N2CCN(CCC(O)c3ccccc3)CC2)cc1 (centres undefined)
24 | > 5000 | 60 |  | O=C(CCN1CCN(c2ccc(Cl)cc2)CC1)c1cccs1
25 | > 5000 | 5000 |  | O=C(CCN1CCN(c2ccc(Cl)cc2)CC1)c1csc2ccccc12

Row | Ki ([1]; read-out: Ki) [nM] | Ki [2] [nM] | Ki [1] [nM] | Compound
26 | 130 | > 5000 |  | COc1ccccc1N1CCN(CC/C(=N/O)c2cc(C)sc2C)CC1
27 |  | 950 | 6.5 | COc1ccccc1N1CCN(CC/C(=N\O)c2ccsc2)CC1
28 |  | 220 |  | O=C(CCN1CCN(c2ccc(Cl)cc2)CC1)c1ccsc1
29 | 13 | 750 |  | COc1cc(F)ccc1N1CCN(CCC(=O)c2cc(C)sc2C)CC1
30 | > 5000 | 5000 |  | O/N=C(\CCN1CCN(c2ccc(Cl)cc2)CC1)c1ccccc1
31 |  | > 5000 |  | COc1ccccc1N1CCN(CCC(=O)c2ccccc2)CC1
32 |  | > 5000 | 220 | COc1ccccc1N1CCN(CCC(Oc2cccc3ccccc23)c2cccs2)CC1 (centres undefined)
33 |  | 5000 | 34 | COc1ccccc1N1CCN(CCC(O)c2ccc(C)s2)CC1 (centres undefined)
34 | 500 | 275 |  | COc1cc(Cl)ccc1N1CCN(CCC(=O)c2cc(C)sc2C)CC1
35 | 50 | 385 |  | COc1ccccc1N1CCN(CCC(O)c2ccsc2)CC1 (centres undefined)
36 | > 5000 | 10 |  | OC(CCN1CCN(c2ccc(Cl)cc2)CC1)c1ccc2ccccc2c1 (centres undefined)
37 |  | 200 |  | OC(CCN1CCN(c2ccc(Cl)cc2)CC1)c1ccsc1 (centres undefined)
38 | 50 | > 5000 |  | O=C(CCN1CCN(c2ccccn2)CC1)c1ccccc1
39 | > 5000 | 500 |  | Fc1ccc(N2CCN(CCC(Oc3ccc(C(F)(F)F)cc3)c3ccccc3)CC2)cc1 (centres undefined)
40 |  | > 5000 | 115 | OC(CCN1CCN(c2ccccc2Cl)CC1)c1ccccc1 (centres undefined)
41 | 10 | 2500 |  | COc1ccccc1N1CCN(CCC(O)c2ccc([N+](=O)[O-])cc2)CC1 (centres undefined)
42 | > 5000 | 290 |  | OC(CCN1CCN(c2ccc(Cl)cc2)CC1)c1cccs1 (centres undefined)
43 | 250 | 1000 |  | COc1ccccc1N1CCN(CCC(=O)c2ccc3ccccc3c2)CC1
44 | 75 | 5000 |  | COc1ccccc1N1CCN(CC/C(=N/O)c2ccc(C)s2)CC1
45 | 50 | > 5000 |  | COc1ccccc1N1CCN(CCC(=O)c2ccc([N+](=O)[O-])cc2)CC1
46 |  | 490 | 110 | O=C(CCN1CCN(c2ccccc2O)CC1)c1csc2ccccc12
47 | 100 | 370 |  | Cc1cc(C(=O)CCN2CCN(c3cccc4ccccc34)CC2)c(C)s1
48 | 500 | 500 |  | COc1cc(F)ccc1N1CCN(CCC(=O)c2csc3ccccc23)CC1
49 |  | 6500 | 55 | COc1ccccc1N1CCN(CCC(Oc2ccc3c(c2)OCO3)c2ccsc2)CC1 (centres undefined)
50 | 800 | 300 |  | O=C(CCN1CCN(c2ccc(Cl)cc2)CC1)c1ccccc1

Row | Ki ([1]; read-out: Ki) [nM] | Ki [2] [nM] | Ki [1] [nM] | Compound
51 |  | 5000 | 17.5 | COc1ccccc1N1CCN(CC/C(=N\O)c2ccccc2)CC1
52 | 800 | 350 |  | OC(CCN1CCN(c2ccc(Cl)cc2)CC1)c1ccccc1 (centres undefined)
53 |  | 800 | 7.5 | Cc1cc(C(=O)CCN2CCN(c3ccccc3O)CC2)c(C)s1
54 |  | 35 | 361 | COc1cc(Cl)ccc1N1CCN(CCC(O)c2csc3ccccc23)CC1 (centres undefined)
55 | 200 | > 5000 |  | O=C(CCN1CCN(c2ccccc2Cl)CC1)c1ccsc1
56 |  | 700 | 3650 | COc1ccccc1N1CCN(CCC(=O)c2ccc(-c3ccccc3)cc2)CC1
57 |  | 460 | 255 | COc1ccccc1N1CCN(CCC(Oc2ccc(C(F)(F)F)cc2)c2ccsc2)CC1 (centres undefined)
58 | 20 | 500 |  | COc1ccccc1N1CCN(CCC(Oc2ccc3c(c2)OCO3)c2ccccc2)CC1 (centres undefined)
59 | > 5000 | 240 |  | O=C(CCN1CCN(c2ccc(Cl)cc2)CC1)c1ccc2ccccc2c1
60 |  | > 5000 | 375 | OC(CCN1CCN(c2ncccn2)CC1)c1ccccc1 (centres undefined)
61 | 180 | > 5000 |  | O=C(CCN1CCN(c2ccccc2Cl)CC1)c1ccccc1
62 | 10 | > 5000 |  | COc1ccccc1N1CCN(CCC(=O)c2cccs2)CC1
63 |  | 1250 | 19 | COc1ccccc1N1CCN(CCC(O)c2cccs2)CC1 (centres undefined)
64 | 500 | 12 |  | COc1cc(F)ccc1N1CCN(CCC(O)c2csc3ccccc23)CC1 (centres undefined)
65 | 5 | 1350 |  | COc1ccccc1N1CCN(CCC(=O)c2cc(C)sc2C)CC1
66 |  | 500 | 325 | COc1ccc(C(O)CCN2CCN(c3ccccc3OC)CC2)cc1 (centres undefined)
67 |  | 2500 | 90 | Cc1cc(C(O)CCN2CCN(c3ccccc3O)CC2)c(C)s1 (centres undefined)
68 | 1600 | 1600 |  | FC(F)(F)c1ccc(OC(CCN2CCN(c3ncccn3)CC2)c2ccccc2)cc1 (centres undefined)
69 |  | 1500 |  | FC(F)(F)c1ccc(OC(CCN2CCN(c3ccccn3)CC2)c2ccccc2)cc1 (centres undefined)
70 | > 5000 | 1150 |  | COc1ccc(N2CCN(CCC(O)c3ccccc3)CC2)cc1 (centres undefined)
71 | 200 | > 5000 |  | OC(CCN1CCN(c2ccccc2Cl)CC1)c1ccsc1 (centres undefined)
72 | 1000 | 2500 |  | O=C(CCN1CCN(c2ccccc2O)CC1)c1ccc2ccccc2c1
73 |  | 1450 | 90 | COc1ccc(OC(CCN2CCN(c3ccccc3OC)CC2)c2ccccc2)cc1 (centres undefined)

Row | Compound | Ki ([1]; read-out: Ki) [nM] | Ki [2] [nM] | Ki [1] [nM]
74 | FC(F)(F)c1ccc(OC(CCN2CCN(c3ccccc3Cl)CC2)c2ccccc2)cc1 (centres undefined) | > 5000 | > 5000 | 
75 | O=C(CCN1CCN(c2ccc([N+](=O)[O-])cc2)CC1)c1ccccc1 | > 5000 | > 5000 | 
76 | COc1ccc(N2CCN(CCC(Oc3ccc(C(F)(F)F)cc3)c3ccccc3)CC2)cc1 (centres undefined) | > 5000 | > 5000 | 
77 | COc1ccccc1N1CCN(CCC(Oc2ccc(C(F)(F)F)cc2)c2ccc(-c3ccccc3)cc2)CC1 (centres undefined) | > 5000 | > 5000 | 

From ChEMBL document CHEMBL1134339, “New 1-aryl-3-(4-arylpiperazin-1-yl)propane derivatives, with dual action at 5-HT1A serotonin receptors and serotonin transporter, as a new class of antidepressants” (J Med Chem, 2001)
